The source made the active and inactive calls.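 The calls were made as follows: active = AC50, the dose giving half-maximal effect, exceeds a fixed cutoff for a compound that rescues yeast growth under heat; inactive = the rest, inconclusive results apart.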
The molecules below were run on S. cerevisiae Burl-1 ts mutant growth, BacTiter-Glo, 38.5C 24 h (assay: restored growth of temperature-sensitive Burl-1 yeast – whole organism, S. cerevisiae, Burl-1 ts mutant, luminescence, counter-screen for SUMOylation pathway inhibitor project, dose response (AID 463199)).

| Structure (SMILES) | AC50 |
| --- | --- |
| CC(=O)N/C(=C\c1ccccc1)C(=O)OCC(=O)c1ccccc1 | > 42 µM (inactive) |
| Cc1ccc(CC(=O)O/N=C(\N)c2cccc([N+](=O)[O-])c2)cc1 | > 42 µM (inactive) |
| Cc1ccc(SCCNC(=O)CN2C(=O)c3ccccc3S2(=O)=O)cc1 | > 42 µM (inactive) |
| COc1ccc(C(=O)N(CCc2ccccc2)Cc2ccccc2)c(OC)n1 | > 42 µM (inactive) |
| COc1ccc(NC(=O)COc2cc(C)cc(C)c2)cc1S(=O)(=O)N1CCCCC1 | > 42 µM (inactive) |
| CC1(C)Cc2nc3sc4c(OCc5ccccc5)ncnc4c3cc2CO1 | > 42 µM (inactive) |
| C/C=C(/C)C(=O)OC1c2c(ccc3ccc(=O)oc23)OC(C)(C)C1OC(=O)/C(C)=C\C (centres undefined) | > 42 µM (inactive) |
| CC(=O)Nc1ccccc1C(=O)C(=O)Nc1ccc(C(=O)NCC2CCCO2)cc1 (centres undefined) | > 42 µM (inactive) |
| Cc1ccc(C(=O)NNc2ncnc3c2cnn3C)cc1 | > 42 µM (inactive) |
| Cc1c(C(=O)NC(C)c2ccc(-n3ccnc3)cc2)cccc1[N+](=O)[O-] (centres undefined) | > 42 µM (inactive) |
| CN1C(=O)NC(=O)[C@]2(Cc3ccccc3N3CCN(c4ccccc4)CC32)C1=O (some centres undefined) | > 42 µM (inactive) |
| COc1cc(-c2nnc(SCC#CCO)o2)cc(OC)c1OC | > 42 µM (inactive) |
| CCn1c(=O)n(CC)c2cc(NC(=O)c3ccccc3Cl)ccc21 | > 42 µM (inactive) |
| CCn1c(SCC(=O)N/N=C/c2ccccc2OCC(=O)O)nnc1-c1ccc(C(C)(C)C)cc1 | > 42 µM (inactive) |
| O=C(c1cc2c(ccc3ccccc32)oc1=O)N1CCCC1 | > 42 µM (inactive) |
| CCCSc1nc(=O)n2cccc(C)c2n1 | > 42 µM (inactive) |
| COc1ccc(-n2c(SCC(=O)NCC3CCCO3)nc3c(c2=O)SCC3)cc1OC (centres undefined) | > 42 µM (inactive) |
| C=CCSC1=C(C#N)C(c2ccc(C(C)C)cc2)CC(=O)N1 (centres undefined) | > 42 µM (inactive) |
| NNc1nc2sc3c(c2c(=O)n1-c1ccccc1)CCCC3 | > 42 µM (inactive) |
| COc1ccc2c(c1)[C@@]13CCC=C[C@H]1[C@@H](C2)NCC3 | > 42 µM (inactive) |
| CC(=O)Nc1ccc(-c2csc(NC(=O)C3CC(=O)N(c4ccc5c(c4)OCCO5)C3)n2)cc1 (centres undefined) | > 42 µM (inactive) |
| Cc1cc(C)cc(C(=O)NC(CC(N)=O)c2ccc(N3CCC(N4CCCCC4)CC3)c([N+](=O)[O-])c2)c1 (centres undefined) | > 42 µM (inactive) |
| CCOC(=O)C(NC(=O)c1ccccc1)(N1CCOCC1)C(F)(F)F (centres undefined) | > 42 µM (inactive) |
| CCOc1ncccc1-c1nc(-c2cccs2)no1 | > 42 µM (inactive) |
| NC(=O)C1=C[C@@H](c2ccc(Br)cc2)C[C@@H](OCCCCO)O1 | > 42 µM (inactive) |

| Structure (SMILES) | AC50 |
| --- | --- |
| CCN(CC)C1CCN(C(=O)c2cc(COc3ccc(-n4cncn4)cc3)on2)C1 (centres undefined) | > 42 µM (inactive) |
| O=c1[nH]c(CN2CCN(CCO)CC2)nc2ccccc12 | > 42 µM (inactive) |
| O=C(c1cc(N2C(=O)C3C4CCC(C4)C3C2=O)ccc1Cl)N1CCN(c2ccccc2)CC1 (centres undefined) | > 42 µM (inactive) |
| O=C(Nc1nc(-c2ccccn2)cs1)c1ccc2c(c1)OCCO2 | > 42 µM (inactive) |
| O=C(N/N=C/c1cccs1)c1cncc(Br)c1 | > 42 µM (inactive) |
| N#Cc1cccc(NC(=O)CSc2n[nH]c(=O)[nH]c2=O)c1 | > 42 µM (inactive) |
| CC(NC(=O)C1CCCN(S(=O)(=O)N2CCOCC2)C1)c1ccccc1 (centres undefined) | > 42 µM (inactive) |
| COc1ccc(OC)c(CCNC(=O)c2ccc3c(c2)N(Cc2ccc(F)cc2)CCS3)c1 | > 42 µM (inactive) |
| Clc1ccc(CSc2nnc(CN3CCOCC3)n2-c2ccccc2)cc1Cl | > 42 µM (inactive) |
| O=C(/C=C/NNC(=O)c1ccc(Br)cc1)c1ccccc1 | > 42 µM (inactive) |
| COc1ccc(S(=O)(=O)Nc2ccc(NC(C)=O)cc2)cc1OC | > 42 µM (inactive) |
| CCC(CC)C(=O)Nc1ccc(S(=O)(=O)Nc2nccs2)cc1 | 26 µM |
| COc1ccc(S(=O)(=O)N2CCOC2CNC(=O)C(=O)NCc2ccncc2)cc1C (centres undefined) | > 42 µM (inactive) |
| CCN(CC)S(=O)(=O)c1ccc(N2CCCC2)c(C(=O)OCC(=O)Nc2cc(C)on2)c1 | > 42 µM (inactive) |
| O=C1CN(C(=O)COC(=O)c2ccccc2NCc2ccco2)c2ccccc2N1 | > 42 µM (inactive) |
| O=C(CSc1cccc2cccnc12)Nc1cc(C(=O)O)cc(C(=O)O)c1 | > 42 µM (inactive) |
| C/C(=N\NC(=O)c1cccc(N/N=C(\C)c2ccc([N+](=O)[O-])cc2)c1)c1ccc([N+](=O)[O-])cc1 | > 42 µM (inactive) |
| CN1c2ccccc2-c2nc3ccccc3n2C1c1ccncc1 (centres undefined) | > 42 µM (inactive) |
| CC(C)CCNC(=O)Cn1c(=O)oc2cc(S(=O)(=O)N3CC(C)CC(C)C3)ccc21 (centres undefined) | > 42 µM (inactive) |
| Cc1ccc(NC(=O)/C=N/OCC(=O)NCc2ccccc2Cl)cc1 | > 42 µM (inactive) |
| Cc1cc(C)cc(NC(=O)CS(=O)(=O)c2ccccc2)c1 | > 42 µM (inactive) |
| CN(C(=O)c1ccc(-c2nn(C)c(=O)c3ccccc23)cc1)C1CCCCC1 | > 42 µM (inactive) |
| CC(=O)N(C(C)=O)C1=C(C#N)C2(CCCCC2)Cc2ccccc21 | > 42 µM (inactive) |
| CC(C)C1OC2(C)OC(=N)C1(C#N)C(C#N)(C#N)C2c1ccccc1 (centres undefined) | > 42 µM (inactive) |

Source: PubChem BioAssay AID463199 (Broad Institute, 2010)
